Laboratory results from the METLIN SMRT retention time set (Domingo-Almenara et al. 2019).

Assay: gradient 5% acetonitrile 3 min, to 50% in 2 min, to 85% in 15 min, held 3 min, 100 µL/min
Details: column: Zorbax Extend-C18 2.1 x 50 mm; eluents: water / acetonitrile, 0.1% formic acid
Method in brief: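 Each retention time is based on an adduct peak selected computationally and verified by manual inspection. Measurements used HPLC–quadrupole time-of-flight mass spectrometry in positive and negative ionization mode on mixtures of ~100 pure standards. Chromatography ran on a Zorbax Extend-C18 column (2.1 × 50 mm, 1.8 μm) at 100 μL/min with water and acetonitrile, each containing 0.1% formic acid, and dead and dwell volumes of 40 μL and 900 μL.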

SMILES	RP-LC retention time
Clc1ccc2nc(-c3ccccc3)c(Nc3ccc4c(c3)OCCO4)n2c1	746 s
O=C([C@@H]1C[C@H](Oc2ccccc2)CN1C(=O)CCC1CCCC1)N1CCCC1	922 s
CCOCCCNCc1ccc(-c2cc(Cl)ccc2Cl)o1	753 s
CN(C)c1ccccc1CN1CCCN(Cc2ccccc2N(C)C)C1c1ccncc1	711 s
O=c1cccnn1CCCNS(=O)(=O)c1ccc2c(c1)OCCO2	645 s
O=C(Cn1cccn1)N1CC(c2nc(-c3cccs3)no2)C1	644 s
CCOc1ccc(S(=O)(=O)N2CCc3c(c(-c4nnc(-c5ccccc5F)o4)nn3C)C2)cc1	945 s
Cc1ccc(-n2ncc3c(=O)n(Cc4nc(-c5cccc(Br)c5)no4)cnc32)cc1	1180 s
CCOC(=O)C1=C(CN(CC)Cc2ccccc2)NC(=O)NC1c1cccs1 (centres undefined)	674 s
CCC(NC(=O)c1ccc2c(c1)nc1n2CCN(C2CCCCC2)C1=O)c1cccs1 (centres undefined)	851 s
Cc1ccc(Nc2nc(-c3ccc(C)c(C)c3)cs2)nc1	859 s
COc1cccc(Cn2c(=O)c3sccc3n(Cc3nc(-c4ccc(F)c(Cl)c4)no3)c2=O)c1	1170 s
COc1cc(C(C)=O)ccc1OCC(O)CN1CCN(c2ccc(C)c(Cl)c2)CC1 (centres undefined)	585 s
CCC(C)(C)C(=O)N1CCCN(C2=NS(=O)(=O)C(c3ccc(C)cc3)=C2C)CC1	915 s
O=C(NC1CC(=O)N(c2ccc3c(c2)OCCO3)C1)c1ccc(-c2ccccc2)cc1 (centres undefined)	866 s
Cc1nc2cc(-c3noc(/C=C/c4ccccc4)n3)ccc2o1	1140 s
CC(C)CNC(=O)Nc1ccc2c(c1)CCN2S(C)(=O)=O	733 s
COc1ccc(Cn2c(=O)c3sccc3n(Cc3nc(-c4cccc(C)c4)no3)c2=O)cc1	1160 s
CC(C)(C)NC(=O)CN1C(=O)C2CCCCN2c2ccc(S(=O)(=O)N3CCCCC3)cc21 (centres undefined)	981 s
CN(C)c1ccc(/C=C2\SC(=O)N(CC(=O)Nc3ccccc3C(F)(F)F)C2=O)cc1	992 s
COc1ccc(-c2noc(C3CCCN3C(=O)c3ccsc3)n2)cc1 (centres undefined)	849 s

SMILES	RP-LC retention time
CCC(C)C(NC(=O)c1cccs1)C(=O)Nc1nc2ccccc2[nH]1 (centres undefined)	692 s
CNC(=O)c1ccc(-n2nc(Sc3ccc(OC)cc3)ccc2=O)cc1	702 s
CCN(CCCNC(=O)c1sc2ncccc2c1-n1cccc1)c1ccccc1	709 s
O=C(Cc1nnc(-c2ccccc2)o1)NC1CCCCC1	787 s
CCc1ccc(-n2cc(C(=O)O)nn2)cc1	727 s
CC(C)CNC(=O)CC1=C2CCCCC2NC1=O (centres undefined)	644 s
O=C1CCN(C(=O)C2CCN(C(=O)NC3CCCCC3)CC2)CCCCCCN1	664 s
O=C(Nc1nccs1)c1cc(-c2ccncc2)nc2ccccc12	614 s
CCc1noc2nc(C)n(CC(=O)NCCCc3ccccc3)c(=O)c12	832 s
CC(C)C(=O)c1c(C(C)C)nn2ccccc12	1010 s
O=c1ccc(-c2ccccc2)nn1CCc1nc(-c2ccc3c(c2)OCO3)no1	900 s
Cc1ccccc1NC(=O)/C=N/O	636 s
CCOC(=O)c1cc(OCC)c2c(ccc3ccccc32)n1	1080 s
CN(C)c1cc(OC2CCN(C(=O)c3cccc4[nH]ccc34)C2)ncn1 (centres undefined)	622 s
CCCC(=O)Nc1ccc(-n2cnc(C(=O)NC3CCCCC3)c2)nc1	758 s
COc1ccc(-c2nnc(-c3cc(S(=O)(=O)N4CCOCC4)ccc3Cl)o2)cc1	950 s
CC12CCC(C(=O)NCc3ccccc3)(OC1=O)C2(C)C (centres undefined)	768 s
CCC(C(=O)NCCN1CCOCC1)n1nc(C)c2nn(-c3ccccc3)c(C)c2c1=O (centres undefined)	640 s
Cc1cccc(-c2nnc(-c3cccc(S(=O)(=O)N4CCC(C)CC4)c3)o2)c1	1220 s
COc1ccc(C2C(C(=O)C3CC3)=C(O)C(=O)N2CCCOC(C)C)cc1OC (centres undefined)	736 s
Cc1[nH]c(C)c(S(=O)(=O)N2CCC(C(=O)NC(C)(C)C)CC2)c1C(=O)N1CCCCC1	710 s

SMILES	RP-LC retention time
COCc1cc(=O)n(CC(=O)Nc2c(C)cccc2C)c(N)n1	604 s
CCCC(=O)Nc1ccc2c(c1)CN(C(=O)c1ccc(F)cc1F)C(C(=O)N(C)C)C2 (centres undefined)	704 s
CC(C)c1nnc2n1CCN(C(=O)c1cc(-c3ccccc3)n[nH]1)C2	647 s
CCn1nccc1-c1cccc(-c2noc(-c3cccnc3Cl)n2)c1	1040 s
Cc1cccc(S(=O)(=O)N2CC3CN(C(=O)C4CCCO4)CC(C2)O3)c1 (centres undefined)	688 s
CCn1ccc(C(=O)NC(C(=O)N2CCCc3ccccc32)c2ccccc2)n1 (centres undefined)	967 s
CCc1ccccc1S(=O)(=O)N1CCc2c(c(-c3nc(C4CC4)no3)nn2C)C1	1010 s
COc1ccc(C(=O)n2nc(C)cc2C)cc1OC	788 s
COCCC(=O)NCCC1CCN(C(=O)Nc2cc(F)cc(F)c2)CC1	695 s
Cc1nc(-c2cn(C)c3ncccc23)sc1C(=O)NCc1ccccc1F	874 s
COc1ccc2[nH]cc(CCNC(=O)c3cc(S(=O)(=O)N4CCSCC4)ccc3Cl)c2c1	880 s
Cc1cc(C)c(C)c(S(=O)(=O)N2CCC(F)(c3nc(CC(C)C)no3)CC2)c1C	1410 s
O=C(c1ccccc1Br)N1CCN(c2cc(-c3cccs3)[nH]n2)CC1	761 s
C=CCN1CCc2cc(O)c(O)cc2C(c2ccccc2)C1 (centres undefined)	652 s
Cc1cc(C)nc(N2CCN(c3ccc(Cl)cc3)CC2)n1	1050 s
CN1C(=O)COc2cc(-c3noc(C(=O)N4CCCCCC4)n3)ccc21	919 s
CCC(C)NC(=O)C1c2ccccc2CC(=O)N1C (centres undefined)	658 s
COc1cccc(-c2nc(Cn3cnc4nc5c(cc4c3=O)CC(C)CC5)c(C)o2)c1OC (centres undefined)	941 s
CCc1cc(C(=O)Nc2cc(OC)cc(OC)c2)nc2cc(-c3ccco3)nn12	795 s

Second part, the compound after the results:

RP-LC retention time	SMILES
586 s	Cc1cc(C(=O)N2CCC(N3CCCCC3)CC2)c2cc(Br)ccc2n1
632 s	O=C(CNC(=O)c1ccc(F)c(F)c1)Nc1nc2ccccc2[nH]1
935 s	Cc1cccc(S(=O)(=O)N2CCC(C)(C(=O)NCc3ccccc3)CC2)c1
1050 s	O=C(NCc1ccc(F)cc1)Nc1ccc(-c2nc(-c3ccccc3)co2)cc1
837 s	CC(C)NC(=O)N1CCC(N2C(=O)C3(CCCC3)C2c2ccccc2)CC1 (centres undefined)
808 s	CCc1ccc(Nc2nc(C(=O)NCc3ccco3)nc3ccccc23)cc1
821 s	O=C(NCc1ccccn1)c1scc(-c2ccc(F)cc2)c1-n1cccc1
842 s	O=C(NCc1ccc(F)cc1)C1CCN(C(=O)c2ncn3c2COC(c2ccc(Cl)cc2)C3)CC1 (centres undefined)
735 s	O=C(NC1CC1)C1CCN(S(=O)(=O)Cc2ccc(Cl)cc2)CC1
662 s	O=C(Cn1c(=O)c2nncn2c2ncccc21)NCc1ccccc1Cl
825 s	COc1ccc(CNC(=O)N2CC(Oc3ccc(-c4nc(C)no4)cc3)C2)cc1
751 s	COCc1nc(-c2ccc(OC3CCN(Cc4ccc(C(F)(F)F)cc4)C3)cc2)no1 (centres undefined)
653 s	Cn1cnc(S(=O)(=O)NCCC2CCN(C(=O)c3ccccc3)CC2)c1
943 s	CC(C)c1ccc(OCC(=O)Nc2nnc(C3CC(=O)N(c4ccc(Cl)cc4)C3)o2)cc1 (centres undefined)
652 s	Cn1cnc2cc(-c3noc(CNC(=O)Cc4ccc(Cl)cc4)n3)ccc21
878 s	CCOc1ccc(S(=O)(=O)N2CCCC(C(=O)NCc3ccccc3)C2)cc1 (centres undefined)
948 s	CCCCNC(=O)C1CCN(C(=O)c2cc3ccsc3n2Cc2cccc(OC)c2)CC1
1010 s	C=CCN1C(=O)COc2ccc(-c3csc(NC(=O)c4ccc(F)cc4)n3)cc21
1050 s	O=C(Cn1nc(N2CCCCCC2)c2ccccc2c1=O)Nc1ccccc1
677 s	NC(=O)C1CCN(C(c2ccccc2F)c2sc3nc(-c4ccco4)nn3c2O)CC1 (centres undefined)
632 s	CCOC(=O)c1c(S(=O)(=O)N2CCC(C(=O)Nc3ncccc3C)CC2)c(C)n(C)c1C
616 s	CC(=O)N1CCc2cc(-c3ccc(C(=O)NCCN4CCCCC4)cc3)ccc21
634 s	O=C1CC(C(=O)N2CCN(Cc3ccccc3)CC2)CN1CCc1c[nH]c2ccc(F)cc12 (centres undefined)
765 s	Cc1ccc2c(c1)cc(S(=O)(=O)c1ccccc1)c(=O)n2CC(=O)NCC1CCCO1 (centres undefined)
769 s	O=C(Nc1ccccc1)C1CCCN(S(=O)(=O)c2c[nH]c(C(=O)N3CCCC3)c2)C1 (centres undefined)
724 s	CCc1csc(-c2cn(CC(=O)NCc3ccc(Cl)cc3)cn2)n1
660 s	Cc1cc2[nH]c(C(=O)NCc3ccc(N4CCOCC4)cc3)c(CN3CCCC3)c2s1
800 s	O=c1n(Cc2cccc(F)c2)nc2ccc(S(=O)(=O)N3CCOCC3)cn12
